Assay results from publication PMC10012588, “Engineering Streptomyces albulus to enhance ε-poly-L-lysine production by introducing a polyphosphate kinase-mediated ATP regeneration system” (Microbial Cell Factories, 2023).

Assays:
Format in all cases: biochemical
PPK1 [1] = biological target: T1, PPK1 (Streptomyces noursei, UniProt A0A2N8P4S7); assay: ATP formation from ADP and polyPn; conditions: 5 uM ADP, 5 uM polyP (polyP6 best), 20 mM MgSO4, 50 mM Tris-HCl pH 8.0, 30 °C, 2 h
T1 construct: gene ppk; gene amplified from the WG608 genome

PPK2B^cg = PPK2B^cg (Corynebacterium glutamicum, UniProt Q8NM65); assay: ATP formation from ADP and polyPn; conditions: 5 uM ADP, 5 uM polyP (polyP6 best), 20 mM MgSO4, 50 mM Tris-HCl pH 8.0, 30 °C, 2 h
PPK2C^pa = biological target: T2, PPK2C^pa (Pseudomonas aeruginosa, UniProt Q9HYF1); assay: ATP formation from ADP and polyPn; conditions: 5 uM ADP, 5 uM polyP (polyP6 best), 20 mM MgSO4, 50 mM Tris-HCl pH 8.0, 30 °C, 2 h
T2 construct: gene PA3455
T2 sequence (Q9HYF1 1-496): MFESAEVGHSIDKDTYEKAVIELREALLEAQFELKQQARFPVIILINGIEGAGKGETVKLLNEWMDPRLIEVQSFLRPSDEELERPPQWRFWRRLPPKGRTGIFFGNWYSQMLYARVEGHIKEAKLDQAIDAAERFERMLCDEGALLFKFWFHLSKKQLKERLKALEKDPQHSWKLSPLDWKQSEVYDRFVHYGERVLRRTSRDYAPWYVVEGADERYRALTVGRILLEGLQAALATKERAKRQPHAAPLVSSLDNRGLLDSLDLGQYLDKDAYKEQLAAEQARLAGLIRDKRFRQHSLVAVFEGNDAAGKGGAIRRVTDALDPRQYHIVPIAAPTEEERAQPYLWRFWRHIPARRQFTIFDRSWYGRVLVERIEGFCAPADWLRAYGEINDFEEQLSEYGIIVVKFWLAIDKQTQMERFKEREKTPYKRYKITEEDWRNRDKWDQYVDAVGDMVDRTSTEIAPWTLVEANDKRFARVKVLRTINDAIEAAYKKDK

PPK1 [2] = biological target: T1, PPK1; assay: change of ATP concentration, reverse reaction; conditions: 0-10 uM ATP, 5 uM ADP, 5 uM polyP6, 20 mM MgSO4, 50 mM Tris-HCl pH 8.0, 30 °C, 2 h

Compound	ATP formation from ADP and polyPn (PPK1 [1])	ATP formation from ADP and polyPn (PPK2B^cg)	ATP formation from ADP and polyPn (PPK2C^pa)	change of ATP concentration, reverse reaction (PPK1 [2])
Nc1ncnc2c1ncn2[C@@H]1O[C@H](COP(=O)(O)OP(=O)(O)O)[C@@H](O)[C@H]1O [ADP]	The activities of the three PPKs were compared in vitro using ADP, and different polyPs	PPK2B^cg exhibited the highest ATP production ability	The activities of the three PPKs were compared in vitro using ADP, and different polyPs	
Nc1ncnc2c1ncn2[C@@H]1O[C@H](COP(=O)(O)OP(=O)(O)OP(=O)(O)O)[C@@H](O)[C@H]1O [ATP]				PPK1 catalyzes polyP6 polymerization and ATP is degraded into ADP
